The record followed here is BindingDB's records for patent WO2022076495 (MERCK SHARP & DOHME CORP., 2022).

This test deals with T1, Diacylglycerol O-acyltransferase 2 (Homo sapiens, UniProt Q96PD7).
T1 sequence (Q96PD7 whole entry): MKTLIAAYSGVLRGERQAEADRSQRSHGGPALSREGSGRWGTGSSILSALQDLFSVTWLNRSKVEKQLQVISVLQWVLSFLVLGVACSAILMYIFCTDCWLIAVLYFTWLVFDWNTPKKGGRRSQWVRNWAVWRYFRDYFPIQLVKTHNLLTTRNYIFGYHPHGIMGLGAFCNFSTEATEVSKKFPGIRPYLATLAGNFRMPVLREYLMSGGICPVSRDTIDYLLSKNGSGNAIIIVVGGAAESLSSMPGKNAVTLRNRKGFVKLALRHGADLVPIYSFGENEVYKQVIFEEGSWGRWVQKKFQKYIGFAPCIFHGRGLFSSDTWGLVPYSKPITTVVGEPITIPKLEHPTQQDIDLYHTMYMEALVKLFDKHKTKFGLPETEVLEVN
The test is described as follows: DGAT2 enzymatic activity assay. As to the method: DGAT2 activity was determined by measuring the amount of enzymatic product 13Ci8-triolein (13C-l,2,3-Tri(cis-9-octadecenoyl)glycerol) using the membrane prep mentioned above. The assay was carried out in ABgene 384-well assay plates in a final volume of 25 pL at rt. The assay mixture contained the following: assay buffer (100 mM Tris Cl, pH 7.0, 20 mM MgCl2, 5% ethanol), 25 pM of di olein, 5 μM of 13C oleoyl-CoA and 8 ng/pL of DGAT2 membrane.
`CC(C)n1c(=O)n(-c2cccc(OC(F)F)c2)c2ncc(C(=O)NC3(C)CCS(=O)(=O)CC3)cc21` [WO2022076495, EXAMPLE 88]: half-maximal inhibition (IC50) required 62 nM. For `CC(C)n1c(=O)n(-c2cc(OC(F)F)ccc2F)c2ncc(C(=O)NC3(C)CCS(=O)(=O)CC3)cc21` [WO2022076495, EXAMPLE 103] the value was 74 nM; for `CC(C)n1c(=O)n(-c2cc(OC(F)F)ncc2F)c2cc(F)c(C(=O)NC3(C)CCS(=O)(=O)CC3)cc21` [WO2022076495, EXAMPLE 115], 4.1 nM; for `CC(C)n1c(=O)n(-c2cc(OC(F)(F)C(F)F)ncc2F)c2cc(F)c(C(=O)NC3(C)CCS(=O)(=O)CC3)cc21` [WO2022076495, EXAMPLE 118], 5.5 nM.
